Experimental data: the NIST ThermoML archive (doi:10.1021/je800589e)
Numbers after ± are expanded uncertainties.

Test: xn = mol fraction of the nth substance listed
Settings: Ring tensiometer

Compound CN1CCCC1=O [N-methylpyrrolidone] + O has a surface tension liquid-gas (293.15 K, x1 = 0.0002) of 63.96 ± 1 mN/m, a surface tension liquid-gas (293.15 K, x1 = 0.0004) of 58.14 ± 1.1 mN/m and a surface tension liquid-gas (293.15 K, x1 = 0.0006) of 55.21 ± 1.1 mN/m. The surface tension liquid-gas (293.15 K, x1 = 0.001) was 53.5 ± 0.74 mN/m, the surface tension liquid-gas (293.15 K, x1 = 0.005) was 52.4 ± 0.71 mN/m and the surface tension liquid-gas (293.15 K, x1 = 0.01) was 51.6 ± 0.69 mN/m. It also gave a surface tension liquid-gas (293.15 K, x1 = 0.03) of 50.2 ± 0.68 mN/m, a surface tension liquid-gas (293.15 K, x1 = 0.1) of 49 ± 0.66 mN/m and a surface tension liquid-gas (293.15 K, x1 = 0.2) of 48.05 ± 0.65 mN/m. It also gave a surface tension liquid-gas (293.15 K, x1 = 0.4) of 46.05 ± 0.63 mN/m, a surface tension liquid-gas (293.15 K, x1 = 0.5) of 45.26 ± 0.63 mN/m and a surface tension liquid-gas (293.15 K, x1 = 0.6) of 44.46 ± 0.62 mN/m. For the same compound, the surface tension liquid-gas (293.15 K, x1 = 0.7) was 43.66 ± 0.61 mN/m, the surface tension liquid-gas (293.15 K, x1 = 0.8) was 42.78 ± 0.61 mN/m and the surface tension liquid-gas (293.15 K, x1 = 0.9) was 41.98 ± 0.6 mN/m. The surface tension liquid-gas (293.15 K, x1 = 1) was 41.26 ± 0.59 mN/m, the surface tension liquid-gas (298.15 K, x1 = 0.0002) was 61.5 mN/m and the surface tension liquid-gas (298.15 K, x1 = 0.0004) was 56.58 ± 4.5 mN/m. It also gave a surface tension liquid-gas (298.15 K, x1 = 0.0006) of 54.22 ± 2.6 mN/m, a surface tension liquid-gas (298.15 K, x1 = 0.001) of 52.86 ± 2.6 mN/m and a surface tension liquid-gas (298.15 K, x1 = 0.005) of 51.68 ± 0.7 mN/m. For the same compound, the surface tension liquid-gas (298.15 K, x1 = 0.01) was 50.78 ± 0.68 mN/m, the surface tension liquid-gas (298.15 K, x1 = 0.03) was 49.41 ± 0.66 mN/m and the surface tension liquid-gas (298.15 K, x1 = 0.1) was 48.29 ± 0.65 mN/m. For the same compound, the surface tension liquid-gas (298.15 K, x1 = 0.2) was 47.49 ± 0.65 mN/m, the surface tension liquid-gas (298.15 K, x1 = 0.4) was 45.42 ± 0.63 mN/m and the surface tension liquid-gas (298.15 K, x1 = 0.5) was 44.62 ± 0.62 mN/m. The surface tension liquid-gas (298.15 K, x1 = 0.6) was 43.82 ± 0.61 mN/m, the surface tension liquid-gas (298.15 K, x1 = 0.7) was 43 ± 0.61 mN/m and the surface tension liquid-gas (298.15 K, x1 = 0.8) was 42.14 ± 0.6 mN/m. For the same compound, the surface tension liquid-gas (298.15 K, x1 = 0.9) was 41.34 ± 0.59 mN/m, the surface tension liquid-gas (298.15 K, x1 = 1) was 40.8 ± 0.59 mN/m and the surface tension liquid-gas (303.15 K, x1 = 0.0002) was 59.25 ± 1 mN/m. It also gave a surface tension liquid-gas (303.15 K, x1 = 0.0004) of 55.68 ± 1.5 mN/m, a surface tension liquid-gas (303.15 K, x1 = 0.0006) of 53.41 ± 2.1 mN/m and a surface tension liquid-gas (303.15 K, x1 = 0.001) of 52.23 ± 0.88 mN/m. For the same compound, the surface tension liquid-gas (303.15 K, x1 = 0.005) was 50.87 ± 0.7 mN/m, the surface tension liquid-gas (303.15 K, x1 = 0.01) was 50 ± 0.67 mN/m and the surface tension liquid-gas (303.15 K, x1 = 0.03) was 48.53 ± 0.65 mN/m. The surface tension liquid-gas (303.15 K, x1 = 0.1) was 47.49 ± 0.64 mN/m, the surface tension liquid-gas (303.15 K, x1 = 0.2) was 46.61 ± 0.64 mN/m and the surface tension liquid-gas (303.15 K, x1 = 0.4) was 44.94 ± 0.62 mN/m. For the same compound, the surface tension liquid-gas (303.15 K, x1 = 0.5) was 44 ± 0.61 mN/m, the surface tension liquid-gas (303.15 K, x1 = 0.6) was 43.1 ± 0.6 mN/m and the surface tension liquid-gas (303.15 K, x1 = 0.7) was 42.38 ± 0.6 mN/m. The surface tension liquid-gas (303.15 K, x1 = 0.8) was 41.66 ± 0.59 mN/m, the surface tension liquid-gas (303.15 K, x1 = 0.9) was 40.94 ± 0.59 mN/m and the surface tension liquid-gas (303.15 K, x1 = 1) was 40.38 ± 0.58 mN/m. It also gave a surface tension liquid-gas (313.15 K, x1 = 0.0002) of 57 ± 12 mN/m, a surface tension liquid-gas (313.15 K, x1 = 0.0004) of 53.77 ± 5.7 mN/m and a surface tension liquid-gas (313.15 K, x1 = 0.0006) of 52.05 ± 4.3 mN/m. It also gave a surface tension liquid-gas (313.15 K, x1 = 0.001) of 51.05 ± 1.2 mN/m, a surface tension liquid-gas (313.15 K, x1 = 0.005) of 49.69 ± 0.68 mN/m and a surface tension liquid-gas (313.15 K, x1 = 0.01) of 48.87 ± 0.66 mN/m. The surface tension liquid-gas (313.15 K, x1 = 0.03) was 47.17 ± 0.64 mN/m, the surface tension liquid-gas (313.15 K, x1 = 0.1) was 46.34 ± 0.63 mN/m and the surface tension liquid-gas (313.15 K, x1 = 0.2) was 45.5 ± 0.62 mN/m. The surface tension liquid-gas (313.15 K, x1 = 0.4) was 44 ± 0.61 mN/m, the surface tension liquid-gas (313.15 K, x1 = 0.5) was 43.12 ± 0.6 mN/m and the surface tension liquid-gas (313.15 K, x1 = 0.6) was 42.3 ± 0.59 mN/m. The surface tension liquid-gas (313.15 K, x1 = 0.7) was 41.5 ± 0.59 mN/m, the surface tension liquid-gas (313.15 K, x1 = 0.8) was 40.78 ± 0.58 mN/m and the surface tension liquid-gas (313.15 K, x1 = 0.9) was 40.14 ± 0.58 mN/m. It also gave a surface tension liquid-gas (313.15 K, x1 = 1) of 39.64 ± 0.57 mN/m, a surface tension liquid-gas (323.15 K, x1 = 0.0002) of 55 ± 0.83 mN/m and a surface tension liquid-gas (323.15 K, x1 = 0.0004) of 52.41 ± 0.84 mN/m. For the same compound, the surface tension liquid-gas (323.15 K, x1 = 0.0006) was 50.87 ± 0.82 mN/m, the surface tension liquid-gas (323.15 K, x1 = 0.001) was 50.14 ± 0.71 mN/m and the surface tension liquid-gas (323.15 K, x1 = 0.005) was 48.78 ± 0.67 mN/m. It also gave a surface tension liquid-gas (323.15 K, x1 = 0.01) of 48.05 ± 0.65 mN/m, a surface tension liquid-gas (323.15 K, x1 = 0.03) of 45.56 ± 0.62 mN/m and a surface tension liquid-gas (323.15 K, x1 = 0.1) of 44.6 ± 0.61 mN/m. For the same compound, the surface tension liquid-gas (323.15 K, x1 = 0.2) was 43.7 ± 0.6 mN/m, the surface tension liquid-gas (323.15 K, x1 = 0.4) was 42.4 ± 0.59 mN/m and the surface tension liquid-gas (323.15 K, x1 = 0.5) was 41.81 ± 0.59 mN/m. It also gave a surface tension liquid-gas (323.15 K, x1 = 0.6) of 41.18 ± 0.58 mN/m, a surface tension liquid-gas (323.15 K, x1 = 0.7) of 40.46 ± 0.57 mN/m and a surface tension liquid-gas (323.15 K, x1 = 0.8) of 39.74 ± 0.57 mN/m. For the same compound, the surface tension liquid-gas (323.15 K, x1 = 0.9) was 39.27 ± 0.57 mN/m and the surface tension liquid-gas (323.15 K, x1 = 1) was 38.68 ± 0.56 mN/m.

O [water] + CCN1CCCC1=O showed a surface tension liquid-gas (293.15 K, x2 = 0) of 72.65 ± 0.94 mN/m, a surface tension liquid-gas (298.15 K, x2 = 0) of 72.05 ± 0.93 mN/m and a surface tension liquid-gas (303.15 K, x2 = 0) of 71.21 ± 0.92 mN/m. The surface tension liquid-gas (313.15 K, x2 = 0) was 69.52 ± 0.9 mN/m and the surface tension liquid-gas (323.15 K, x2 = 0) was 67.92 ± 0.88 mN/m.

Compound O [water] + CN1CCCC1=O has a surface tension liquid-gas (293.15 K, x2 = 0) of 72.65 ± 0.94 mN/m, a surface tension liquid-gas (298.15 K, x2 = 0) of 72.05 ± 0.93 mN/m and a surface tension liquid-gas (303.15 K, x2 = 0) of 71.21 ± 0.92 mN/m. For the same compound, the surface tension liquid-gas (313.15 K, x2 = 0) was 69.52 ± 0.9 mN/m and the surface tension liquid-gas (323.15 K, x2 = 0) was 67.92 ± 0.88 mN/m.

Work on O [water] + O=C1CCCN1 yielded a surface tension liquid-gas (293.15 K, x2 = 0) of 72.65 ± 0.94 mN/m, a surface tension liquid-gas (298.15 K, x2 = 0) of 72.05 ± 0.93 mN/m and a surface tension liquid-gas (303.15 K, x2 = 0) of 71.21 ± 0.92 mN/m. It also gave a surface tension liquid-gas (313.15 K, x2 = 0) of 69.52 ± 0.9 mN/m and a surface tension liquid-gas (323.15 K, x2 = 0) of 67.92 ± 0.88 mN/m.
